In article PMC10518257 (Nature Cancer, 2023):
Where “and” joins values, the source holds several entries; their conditions need not be identical. Equal entries are not always repeated. Where two headings read alike, the source gives them in different places.

Tests used:
LUAD-0057AS1 PDX = assay: PDX efficacy study; conditions: for Change in Tumor Volume: end of study, individual tumors
LUAD-0087AS2 cells = assay: Growth inhibition (alamarBlue, 96 h); assay type: cell-based, human; conditions: for raw viability signal (Source Data Fig. 3b-c): LUAD-0087AS2, replicate sets
ECLC5 xenografts = assay: Subcutaneous xenograft efficacy study; conditions: for Change in Tumor Volume: end of study, individual tumors
[1] = tested on: HBECp53-RET cells (CCDC6-RET fusion); assay: Growth inhibition (alamarBlue, 96 h); assay type: cell-based, human; conditions: for raw viability signal (Source Data Fig. 3b-c): HBEC-RET, replicate sets
[2] = tested on: Ba/F3 cells expressing KIF5B–RET^WT; assay: Growth inhibition assay in Ba/F3 cells (CellTiter-Glo, 72 h); assay type: cell-based
[3] = molecular target: T1, panel of 255 (vepafestinib) or 256 (all other inhibitors) recombinant kinases (Homo sapiens, UniProt P35968); assay: Kinase selectivity profiling at a single concentration (Carna Biosciences); assay type: biochemical; conditions: 23 nM
T1 construct: purchased Carna Biosciences

[4] = molecular target: T2, panel of 255 (vepafestinib) or 256 (all other inhibitors) recombinant kinases (Homo sapiens, UniProt Q06418); assay: as above; assay type: biochemical; conditions: 23 nM
T2 construct: purchased Carna Biosciences

[5] = molecular target: T3, panel of 255 (vepafestinib) or 256 (all other inhibitors) recombinant kinases (Homo sapiens, UniProt O14757); assay: as above; assay type: biochemical; conditions: 23 nM
T3 construct: purchased Carna Biosciences

[6] = molecular target: T4, panel of 255 (vepafestinib) or 256 (all other inhibitors) recombinant kinases (Homo sapiens, UniProt Q15375); assay: as above; assay type: biochemical; conditions: 23 nM
T4 construct: purchased Carna Biosciences

[7] = 50 mg/kg BID, day 0, individual animals
[8] = 50 mg/kg BID, day 7, individual animals
[9] = 50 mg/kg BID, day 14, individual animals
[10] = 100 mg/kg QD, day 0, individual animals
[11] = 100 mg/kg QD, day 7, individual animals
[12] = 100 mg/kg QD, day 14, individual animals

T3 sequence (O14757 whole entry): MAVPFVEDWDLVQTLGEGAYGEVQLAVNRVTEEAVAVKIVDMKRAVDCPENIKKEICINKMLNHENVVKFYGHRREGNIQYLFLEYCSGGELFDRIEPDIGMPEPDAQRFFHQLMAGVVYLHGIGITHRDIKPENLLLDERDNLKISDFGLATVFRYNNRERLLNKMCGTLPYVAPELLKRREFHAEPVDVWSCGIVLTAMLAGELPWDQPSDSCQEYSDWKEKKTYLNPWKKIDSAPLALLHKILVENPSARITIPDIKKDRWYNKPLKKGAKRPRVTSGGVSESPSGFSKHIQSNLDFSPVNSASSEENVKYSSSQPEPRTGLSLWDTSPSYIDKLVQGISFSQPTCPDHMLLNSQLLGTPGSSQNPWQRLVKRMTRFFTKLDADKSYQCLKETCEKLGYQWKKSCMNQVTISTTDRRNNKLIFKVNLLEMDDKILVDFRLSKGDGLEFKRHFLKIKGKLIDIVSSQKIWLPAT
T2 sequence (Q06418 41-890): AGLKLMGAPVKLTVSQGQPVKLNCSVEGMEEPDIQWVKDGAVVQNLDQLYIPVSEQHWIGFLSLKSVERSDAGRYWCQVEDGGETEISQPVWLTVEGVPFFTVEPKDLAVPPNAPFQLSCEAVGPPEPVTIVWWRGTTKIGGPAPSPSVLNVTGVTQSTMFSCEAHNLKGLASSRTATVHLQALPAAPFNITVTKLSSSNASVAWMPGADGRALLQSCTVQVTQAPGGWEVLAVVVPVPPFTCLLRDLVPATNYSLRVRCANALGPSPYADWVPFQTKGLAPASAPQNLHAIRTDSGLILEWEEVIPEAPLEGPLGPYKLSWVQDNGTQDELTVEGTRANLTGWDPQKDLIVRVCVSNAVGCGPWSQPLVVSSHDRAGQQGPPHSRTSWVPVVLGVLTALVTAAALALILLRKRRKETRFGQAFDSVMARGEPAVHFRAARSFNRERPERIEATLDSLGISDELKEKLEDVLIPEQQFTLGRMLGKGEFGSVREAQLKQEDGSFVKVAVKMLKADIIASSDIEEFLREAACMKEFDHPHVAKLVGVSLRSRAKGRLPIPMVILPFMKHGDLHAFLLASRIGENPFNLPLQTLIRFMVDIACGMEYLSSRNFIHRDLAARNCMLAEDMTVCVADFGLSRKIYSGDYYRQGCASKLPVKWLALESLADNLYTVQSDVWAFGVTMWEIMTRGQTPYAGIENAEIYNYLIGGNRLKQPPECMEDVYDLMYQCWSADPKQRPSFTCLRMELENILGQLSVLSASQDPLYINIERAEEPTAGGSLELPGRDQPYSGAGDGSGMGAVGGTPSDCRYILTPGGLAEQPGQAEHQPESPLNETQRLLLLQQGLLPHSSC
T1 sequence (P35968 20-1356): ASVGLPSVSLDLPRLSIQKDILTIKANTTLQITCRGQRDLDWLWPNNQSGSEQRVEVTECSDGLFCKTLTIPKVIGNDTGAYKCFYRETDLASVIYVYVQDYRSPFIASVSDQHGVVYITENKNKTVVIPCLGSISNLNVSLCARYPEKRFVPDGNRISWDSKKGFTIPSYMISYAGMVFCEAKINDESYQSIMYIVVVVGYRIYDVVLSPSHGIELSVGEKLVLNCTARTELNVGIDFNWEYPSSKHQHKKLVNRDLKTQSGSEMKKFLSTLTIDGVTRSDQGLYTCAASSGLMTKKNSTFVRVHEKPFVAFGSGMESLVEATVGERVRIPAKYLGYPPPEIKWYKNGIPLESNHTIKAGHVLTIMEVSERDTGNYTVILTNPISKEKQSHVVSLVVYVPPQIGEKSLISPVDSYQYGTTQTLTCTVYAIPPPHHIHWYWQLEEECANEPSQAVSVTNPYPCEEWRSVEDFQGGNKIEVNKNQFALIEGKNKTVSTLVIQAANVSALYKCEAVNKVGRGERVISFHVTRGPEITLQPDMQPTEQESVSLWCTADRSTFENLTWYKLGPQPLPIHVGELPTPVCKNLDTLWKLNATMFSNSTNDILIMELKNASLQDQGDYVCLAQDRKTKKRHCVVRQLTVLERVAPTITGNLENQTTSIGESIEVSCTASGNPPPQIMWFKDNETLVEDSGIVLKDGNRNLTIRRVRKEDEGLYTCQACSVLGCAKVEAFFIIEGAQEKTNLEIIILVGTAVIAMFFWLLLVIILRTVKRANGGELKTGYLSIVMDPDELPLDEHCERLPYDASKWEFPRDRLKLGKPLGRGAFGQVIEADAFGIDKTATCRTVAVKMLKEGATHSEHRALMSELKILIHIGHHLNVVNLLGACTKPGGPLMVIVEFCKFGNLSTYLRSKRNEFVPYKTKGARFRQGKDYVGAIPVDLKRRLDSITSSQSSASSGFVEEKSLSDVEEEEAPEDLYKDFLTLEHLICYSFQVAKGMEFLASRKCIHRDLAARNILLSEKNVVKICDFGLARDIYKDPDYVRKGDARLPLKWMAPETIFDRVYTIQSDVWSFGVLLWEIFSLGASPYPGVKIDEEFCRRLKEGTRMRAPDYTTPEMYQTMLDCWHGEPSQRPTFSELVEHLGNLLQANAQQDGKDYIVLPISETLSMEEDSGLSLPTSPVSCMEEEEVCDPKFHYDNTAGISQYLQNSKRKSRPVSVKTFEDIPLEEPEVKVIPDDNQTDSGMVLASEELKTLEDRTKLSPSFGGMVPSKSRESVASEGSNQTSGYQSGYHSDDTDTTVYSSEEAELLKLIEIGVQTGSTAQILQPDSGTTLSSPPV
T4 sequence (Q15375 28-998): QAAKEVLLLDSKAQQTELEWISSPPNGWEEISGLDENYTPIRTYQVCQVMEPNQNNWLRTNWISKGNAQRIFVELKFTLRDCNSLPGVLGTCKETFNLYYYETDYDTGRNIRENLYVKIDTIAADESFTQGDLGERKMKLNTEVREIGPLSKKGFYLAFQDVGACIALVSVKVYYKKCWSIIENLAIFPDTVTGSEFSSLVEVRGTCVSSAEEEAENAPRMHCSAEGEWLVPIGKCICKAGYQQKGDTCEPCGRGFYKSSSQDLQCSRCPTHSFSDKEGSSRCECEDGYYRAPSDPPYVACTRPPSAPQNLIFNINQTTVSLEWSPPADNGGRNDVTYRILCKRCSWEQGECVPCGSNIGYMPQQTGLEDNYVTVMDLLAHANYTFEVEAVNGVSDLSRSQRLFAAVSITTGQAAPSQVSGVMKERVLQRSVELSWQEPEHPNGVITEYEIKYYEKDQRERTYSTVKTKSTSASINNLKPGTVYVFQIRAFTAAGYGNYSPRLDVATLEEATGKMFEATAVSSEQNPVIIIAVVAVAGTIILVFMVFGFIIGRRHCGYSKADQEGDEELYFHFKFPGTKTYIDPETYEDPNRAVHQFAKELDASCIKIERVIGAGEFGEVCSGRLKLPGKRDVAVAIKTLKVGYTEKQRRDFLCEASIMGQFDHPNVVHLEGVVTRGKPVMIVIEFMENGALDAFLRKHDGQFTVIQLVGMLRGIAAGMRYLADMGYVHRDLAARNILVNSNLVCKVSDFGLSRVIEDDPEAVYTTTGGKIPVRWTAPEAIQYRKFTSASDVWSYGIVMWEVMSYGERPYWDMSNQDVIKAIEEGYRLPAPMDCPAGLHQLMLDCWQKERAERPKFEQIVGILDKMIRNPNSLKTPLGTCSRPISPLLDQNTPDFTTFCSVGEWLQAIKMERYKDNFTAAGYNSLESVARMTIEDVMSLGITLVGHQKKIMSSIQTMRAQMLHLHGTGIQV

COCc1ccc(NC(=O)c2c(C#CCN3CCOCC3)n(C3(C)CC3)c3ncnc(N)c23)cc1 [Vepafestinib, 4-amino-N-[4-(methoxymethyl)phenyl]-7-(1-methylcyclopropyl)-6-[3-(morpholin-4-yl)prop-1-yn-1-yl]-7H-pyrrolo[2,3-d]pyrimidine-5-carboxamide]
tumor shrinkage (LUAD-0057AS1 PDX; 50 mg per kg BID): 44% ± 3% | Area Under Curve of tumor growth, Mean (LUAD-0057AS1 PDX; 50 mg/kg BID): -1274 | Tumor volume (LUAD-0057AS1 PDX; [7]): 141.55 mm3 and 150.43 mm3 (2×) and 137.16 mm3 and 152.81 mm3 and 132.84 mm3 and 139.24 mm3 and 143.69 mm3 | Tumor volume (LUAD-0057AS1 PDX; 50 mg/kg BID, day 3, individual animals): 107.44 mm3 and 102.07 mm3 (2×) and 103.92 mm3 and 105.68 mm3 (2×) and 109.36 mm3 and 109.21 mm3 | Tumor volume (LUAD-0057AS1 PDX; [8]): 86.78 mm3 and 84.95 mm3 (2×) and 83.53 mm3 and 93.45 mm3 and 76.27 mm3 and 91.61 mm3 and 79.29 mm3 | Tumor volume (LUAD-0057AS1 PDX; 50 mg/kg BID, day 10, individual animals): 71.99 mm3 and 84.95 mm3 and 77.63 mm3 and 80.7 mm3 (2×) and 69.38 mm3 and 74.9 mm3 and 72.18 mm3 | Tumor volume (LUAD-0057AS1 PDX; [9]): 89.72 mm3 and 88.25 mm3 (2×) and 78.99 mm3 and 76.27 mm3 and 80.7 mm3 and 72.18 mm3 | Tumor volume (LUAD-0057AS1 PDX; 50 mg/kg BID, day 19, individual animals): 80.35 mm3 and 77.63 mm3 and 73.3 mm3 (2×) and 71.99 mm3 and 88.25 mm3 and 72.18 mm3 | Tumor volume (LUAD-0057AS1 PDX; 50 mg/kg BID, day 23, individual animals): 80.35 mm3 and 82.12 mm3 and 74.61 mm3 and 73.3 mm3 and 71.99 mm3 and 109.29 mm3 | Change in Tumor Volume (LUAD-0057AS1 PDX; 50 mg/kg BID): -49.1416% and -46.5865% and -45.4098% and -45.6037% and -52.0319% and -45.807% and -21.5096% and -48.8204% | tumor shrinkage (LUAD-0057AS1 PDX; 100 mg per kg QD): 48% ± 1% | Area Under Curve of tumor growth, Mean (LUAD-0057AS1 PDX; 100 mg/kg QD): -1469 | Tumor volume (LUAD-0057AS1 PDX; [10]): 145.84 mm3 (3×) and 143.69 mm3 and 141.32 mm3 and 152.81 mm3 and 139.24 mm3 and 148.22 mm3 | Tumor volume (LUAD-0057AS1 PDX; 100 mg/kg QD, day 3, individual animals): 79.29 mm3 and 83.83 mm3 and 80.7 mm3 (2×) and 91.87 mm3 (3×) and 95.24 mm3 | Tumor volume (LUAD-0057AS1 PDX; [11]): 71.99 mm3 and 77.87 mm3 and 69.14 mm3 and 72.18 mm3 and 69.38 mm3 and 74.61 mm3 and 80.7 mm3 and 70.69 mm3 | Tumor volume (LUAD-0057AS1 PDX; 100 mg/kg QD, day 10, individual animals): 71.99 mm3 and 80.89 mm3 and 66.35 mm3 and 72.18 mm3 and 69.38 mm3 and 74.61 mm3 and 77.87 mm3 and 70.69 mm3 | Tumor volume (LUAD-0057AS1 PDX; [12]): 77.63 mm3 (2×) and 83.83 mm3 and 74.61 mm3 (2×) and 69.38 mm3 and 87.03 mm3 and 75.92 mm3 | Tumor volume (LUAD-0057AS1 PDX; 100 mg/kg QD, day 19, individual animals): 68.09 mm3 and 80.7 mm3 and 73.3 mm3 (2×) and 77.63 mm3 and 74.61 mm3 (2×) and 78.99 mm3 | Change in Tumor Volume (LUAD-0057AS1 PDX; 100 mg/kg QD): -49.7394% and -48.9874% and -48.1319% and -52.0319% and -45.2241% and -47.703% and -43.6917% and -45.79% | IC50 (LUAD-0087AS2 cells; Homo sapiens, 96 h, read-out: IC50 for Inhibition of Growth (95% CI)): 52 nM | raw viability signal (Source Data Fig. 3b-c) (LUAD-0087AS2 cells; 0.01 nM): 11228 and 14615.9 and 14016.7 and 14250.8 | raw viability signal (Source Data Fig. 3b-c) (LUAD-0087AS2 cells; 0.1 nM): 11523.4 and 15236.1 and 13636.1 and 15169.5 | raw viability signal (Source Data Fig. 3b-c) (LUAD-0087AS2 cells; 1 nM): 9899.07 and 15123.8 and 13931.5 and 14165.7 | raw viability signal (Source Data Fig. 3b-c) (LUAD-0087AS2 cells; 10 nM): 10547.8 and 8202.29 and 13996.8 and 13713.3 | raw viability signal (Source Data Fig. 3b-c) (LUAD-0087AS2 cells; 100 nM): 5765.45 and 5334.21 and 3421.1 and 4734.04 | raw viability signal (Source Data Fig. 3b-c) (LUAD-0087AS2 cells; 1000 nM): 2843.25 and 5162.03 and 1552.19 and 1343.68 | raw viability signal (Source Data Fig. 3b-c) (LUAD-0087AS2 cells; 10000 nM): 1385.86 and 3882.23 and 977.192 and 943.954 | Area Under Curve of tumor growth, Mean (ECLC5 xenografts; 25 mg/kg BID): -1045 | Tumor volume (ECLC5 xenografts; 25 mg/kg BID, day 0, individual animals): 91.87 mm3 (2×) and 88.56 mm3 (2×) and 85.31 mm3 | Tumor volume (ECLC5 xenografts; 25 mg/kg BID, day 4, individual animals): 74.9 mm3 (2×) and 77.87 mm3 and 71.99 mm3 and 69.38 mm3 | Tumor volume (ECLC5 xenografts; 25 mg/kg BID, day 7, individual animals): 60.32 mm3 (2×) and 59.11 mm3 and 58.99 mm3 (2×) | Tumor volume (ECLC5 xenografts; 25 mg/kg BID, day 11, individual animals): 60.32 mm3 and 48.77 mm3 and 55.52 mm3 and 54.07 mm3 (2×) | Tumor volume (ECLC5 xenografts; 25 mg/kg BID, day 14, individual animals): 60.32 mm3 and 48.77 mm3 and 55.52 mm3 and 54.07 mm3 (2×) | Change in Tumor Volume (ECLC5 xenografts; 25 mg/kg BID): -43.3221% and -50.8017% and -52.5743% and -65.5492% and -27.8004% | tumor regression (ECLC5 xenografts; 50 mg per kg BID): 100% ± 0% | Area Under Curve of tumor growth, Mean (ECLC5 xenografts; 50 mg/kg BID): -1486 | Tumor volume (ECLC5 xenografts; [7]): 83.83 mm3 and 88.56 mm3 (2×) and 87.03 mm3 and 85.31 mm3 | Tumor volume (ECLC5 xenografts; 50 mg/kg BID, day 4, individual animals): 68.07 mm3 and 72.18 mm3 (2×) and 66.63 mm3 (2×) | Tumor volume (ECLC5 xenografts; [8]): 39.61 mm3 and 59.11 mm3 and 58.99 mm3 and 61.52 mm3 and 53.18 mm3 | Tumor volume (ECLC5 xenografts; 50 mg/kg BID, day 11, individual animals): 36.97 mm3 and 42.6 mm3 and 49.37 mm3 and 48.41 mm3 and 48.77 mm3 | Tumor volume (ECLC5 xenografts; [9]): 36.97 mm3 and 42.6 mm3 and 41.37 mm3 and 45.5 mm3 and 44.53 mm3 | Change in Tumor Volume (ECLC5 xenografts; 50 mg/kg BID): -100% | Area Under Curve of tumor growth, Mean (ECLC5 xenografts; 50 mg/kg QD): -1322 | Tumor volume (ECLC5 xenografts; 50 mg/kg QD, day 0, individual animals): 85.31 mm3 and 83.83 mm3 and 88.56 mm3 and 91.87 mm3 and 90.28 mm3 | Tumor volume (ECLC5 xenografts; 50 mg/kg QD, day 4, individual animals): 72.18 mm3 (2×) and 75.04 mm3 and 68.07 mm3 and 69.38 mm3 | Tumor volume (ECLC5 xenografts; 50 mg/kg QD, day 7, individual animals): 50.89 mm3 and 53.18 mm3 and 49.83 mm3 (2×) and 48.77 mm3 | Tumor volume (ECLC5 xenografts; 50 mg/kg QD, day 11, individual animals): 52.07 mm3 (2×) and 57.91 mm3 and 49.83 mm3 and 48.77 mm3 | Tumor volume (ECLC5 xenografts; 50 mg/kg QD, day 14, individual animals): 52.07 mm3 (2×) and 57.91 mm3 and 48.77 mm3 and 62.73 mm3 | Change in Tumor Volume (ECLC5 xenografts; 50 mg/kg QD): -57.7775% and -61.9945% and -68.4282% and -71.9277% and -43.6309% | tumor regression (ECLC5 xenografts; 100 mg per kg QD): 90.3% ± 4% | Area Under Curve of tumor growth, Mean (ECLC5 xenografts; 100 mg/kg QD): -1970 | Tumor volume (ECLC5 xenografts; [10]): 91.87 mm3 (2×) and 88.56 mm3 and 85.31 mm3 (2×) | Tumor volume (ECLC5 xenografts; 100 mg/kg QD, day 4, individual animals): 47.71 mm3 and 52.07 mm3 (2×) and 49.83 mm3 and 50.97 mm3 | Tumor volume (ECLC5 xenografts; [11]): 38.79 mm3 and 35.19 mm3 and 30.11 mm3 (2×) and 25.42 mm3 | Tumor volume (ECLC5 xenografts; 100 mg/kg QD, day 11, individual animals): 38.79 mm3 and 35.19 mm3 and 26.94 mm3 (2×) and 30.11 mm3 | Tumor volume (ECLC5 xenografts; [12]): 34.35 mm3 and 35.19 mm3 and 26.94 mm3 and 28.5 mm3 and 30.11 mm3 | Change in Tumor Volume (ECLC5 xenografts; 100 mg/kg QD): -85.621% and -100% and -81.7724% and -84.0971% | raw viability signal (Source Data Fig. 3b-c) ([1]; 0.01 nM): 18957.1 and 8244.84 and 10678.9 and 16541.7 | raw viability signal (Source Data Fig. 3b-c) ([1]; 0.1 nM): 17482 and 10966 and 10873.4 and 16651.3 | raw viability signal (Source Data Fig. 3b-c) ([1]; 1 nM): 17298.8 and 10767.5 and 11130.6 and 16468.7 | raw viability signal (Source Data Fig. 3b-c) ([1]; 10 nM): 5536.96 and 10230.4 and 9156.41 and 16208.5 | raw viability signal (Source Data Fig. 3b-c) ([1]; 100 nM): 4544.29 and 6087.71 and 3084.29 and 6640.5 | raw viability signal (Source Data Fig. 3b-c) ([1]; 1000 nM): 2966.02 and 1973.98 and 3130.94 and 5863.55 | raw viability signal (Source Data Fig. 3b-c) ([1]; 10000 nM): 3124.48 and 1006.63 and 1869.57 and 4627.96 | IC50 ([1]; Homo sapiens, 96 h, read-out: IC50 for Inhibition of Growth (95% CI), HBECp53-RET, alamarBlue, 96 h): 65 nM | GI50 ([2]; Ba/3-KIF5B-RET, replicate sets): 8.96 nM and 6.78 nM | GI50 ([2]; Mus musculus, BaF3, 72 h, read-out: GI50 value (Mean ± SD), Ba/F3-KIF5B::RET, CellTiter-Glo, 72 h): 8.27 ± 1.29 nM | GI50 ([2]; Mus musculus, BaF3, Ba/3-KIF5B-RET, replicate sets): 9.06 nM | % Inhibiton KDR [3]: 36% | % Inhibiton TYRO3 [4]: 8.6% | % Inhibiton CHK1 [5]: 11.9% | % Inhibiton EPHA7 [6]: 10.4%
